{"source": "patent US12686788B2", "about": "“Coating compositions having covalently bound ultraviolet absorbers” (BASF SE, priority 2017, dated 2026)", "type_in_all_cases": "physicochemical", "key": {"[1]": {"assay": "Percent transmission of clear coats on fused quartz plates (UV-vis)", "conditions": "clear coat, 2.0 mils dry film on fused quartz; 2.5 weight percent UVA actives where present; with HALS 2", "protocol": "Example 29. Percent Transmission Data of the Inventive Clear Coats—Clear coats were prepared of Instant Example 23 and were applied to fused quartz plates at a dry film thickness of 2.0 mils. The absorbance at various wavelengths was measured using a UV-vis spectrophotometer and the absorbance readings were converted to percent transmission (% T) at various wavelengths. In formulations where the UV absorber (UVA) was present, the concentration was 2.5 weight percent UVA actives relative to total resin solids"}, "[2]": {"assay": "UV absorber solubility in UV curable coating composition (Example 8)", "conditions": "approximate maximum concentration with no sign of crystallization; coating similar to Pourreau, RadTech Report 2004, Table 5", "protocol": "Example 8. UV Absorber Solubility in UV Curable Coating Compositions. To measure this solubility, a number of structurally different UV absorbers were added to a typical UV curable coating composition similar to that as described by D. B. Pourreau “UV-Curable Acrylic Urethane Clearcoats for Automotive Applications,” RadTech Report, November/December, 2004, Table 5, p. 66. The test UV absorber was added to the UV curable coating composition at various concentrations. The resulting solution was placed into individual containers and sealed. Solubility was then evaluated based upon observed crystallization in the solvent. Observations started after several hours and then continued over a period of several weeks.\nThe solubility values given in Table 1, below, are approximate maximum concentrations where no sign of subsequent crystallization was evident. Solubilities are reported in weight percent of total UV absorber added to UV curable coating formulation. From the data in Table 1, it is clear that the inventive triazine UV absorbers are considerably more soluble in UV curable coating formulations than other triazine UV absorbers of the prior art. The use of many UV absorbers in coatings has been limited by solubility and compatibility of some UV absorber compounds. […]"}, "[3]": {"assay": "Multilayered coated panels, accelerated weathering: 20 degree gloss retention", "conditions": "after 3536 hours Xenon Arc accelerated weathering (SAE J2527); UV absorber 2.5 wt % in 2-part polyurethane clear top coat on white base coat", "protocol": "(§1) Example 10. Stabilized 2-Part Solvent-borne Polyurethane Glossy Clear Top Coat. A glossy stabilized clear top coat was prepared of the formulation below. The UV absorbers were added to the formulation at 2.5 wt % relative to total resin solids.\n(§2) Example 11. Stabilized 2-Part Solvent-borne Polyurethane Glossy Clear Top Coat. A glossy stabilized clear top coat was prepared of the formulation below. The UV absorber was added at 2.5 wt % relative to total resin solids, and the hindered amine light stabilizer (HALS) was added at 1.5 wt % relative to total resin solids. The HALS was a mixture of bis (1,2,2,6,6-pentamethyl-4-piperidyl) sebacate and methyl-1,2,2,6,6-pentamethyl-4-piperidyl sebacate (“HALS 1”); bis(1-octyloxy-2,2,6,6-tetramethylpiperidin-4-yl) sebacate (“HALS 2”); or 2,4-bis[(1-cyclohexyloxy-2,2,6,6-tetramethylpiperidin-4-yl)butylamino]-6-(2-hydroxyethylamino-s-triazine (“HALS 3”).\nExample 12. Multilayered Coated Panel Preparation. Aluminum test panels from ACT Test Panels LLC were purchased having a white base coat (coil coat) and no clear top coat. The panels were cut to a size of about 3 inches by 6 inches. […] Initial CIE Lab color values, 20 degree gloss, and 60 degree gloss were measured. […]"}, "[4]": {"assay": "Multilayered coated panels, accelerated weathering: color change (ΔE)", "conditions": "after 6000 hours Xenon Arc accelerated weathering (SAE J2527); UV absorber 2.5 wt % in 2-part polyurethane clear top coat on white base coat", "protocol": "as §1, §2\nExample 12. Multilayered Coated Panel Preparation. Aluminum test panels from ACT Test Panels LLC were purchased having a white base coat (coil coat) and no clear top coat. The panels were cut to a size of about 3 inches by 6 inches. The stabilized top coats of Examples 10 and 11 were applied to the painted test panels using draw down bars to obtain clear coat thicknesses of either 2 mils or 3 mils, wherein 1 mil is equal to 0.0254 mm or 25.4 microns. The panels were allowed to air dry for 2 days followed by oven curing at 60° C. for 60 minutes. Initial CIE Lab color values, 20 degree gloss, and 60 degree gloss were measured.\nExample 14. Multilayered Coated Panels, Accelerated Weathering. […]\nInitial color measurements were taken using the above parameters. The L, a, and b values were calculated using the CIE system from the reflectance values. ΔE was calculated from the L, a, and b values. Subsequent measurements were taken at specified intervals. ΔL, a, and b values were the difference between the initial values and the values at each interval. ΔE was calculated as follows: [(ΔL)^2+(Δa)^2+(Δb)^2][…]=ΔE. […]"}, "[5]": {"assay": "UV absorber solubility in UV curable coating composition (Example 9)", "conditions": "approximate maximum concentration with no sign of crystallization; coating similar to Pourreau, RadTech Report 2004, Table 6", "protocol": "Example 9. UV Absorber Solubility in UV Curable Coating Compositions. To measure this solubility, a number of structurally different UV absorbers were added to a typical UV curable coating composition similar to that as described by D. B. Pourreau “UV-Curable Acrylic Urethane Clearcoats for Automotive Applications,” RadTech Report, November/December, 2004, Table 6, p. 68. The test UV absorber was added to the UV curable coating composition at various concentrations. The resulting solution was placed into individual containers and sealed. Solubility was then evaluated based upon observed crystallization in the solvent. Observations were initiated after several hours and continued over a period of several weeks.\nThe solubility values given in Table 2, below, are approximate maximum concentrations where no sign of subsequent crystallization is evident. Solubilities are reported in weight percent of total UV absorber added to UV curable coating formulation. From the data, it is clear that the instant triazine UV absorbers are considerably more soluble in UV curable coating formulations compared to other, triazine UV absorbers. The use of many UV absorbers in coatings has been limited in the past by the limited solubility and compatibility of some UV absorber compounds."}}}
{"molecule": "2-[4,6-bis(2,4-dimethylphenyl)-1,3,5-triazin-2-yl]-5-[2-hydroxy-3-(2-methylbutoxy)propoxy]phenol and regioisomer [Example 3, reference compound]", "values": [{"measurement": "% T at 325 nm", "setting": "[1]", "result": 0.04, "unit": "%"}, {"measurement": "% T at 350 nm", "setting": "[1]", "result": 0.10, "unit": "%"}, {"measurement": "% T at 375 nm", "setting": "[1]", "result": 36.79, "unit": "%"}]}
{"molecule": "CC(C)CCCC(C)OC(=O)C(C)Oc1ccc(-c2nc(-c3ccc(-c4ccccc4)cc3)nc(-c3ccc(-c4ccccc4)cc3)n2)c(O)c1", "note": "(centres unmarked) [Example 4, 2-Isooctyl 2-[4-[4,6-bis(4-phenylphenyl)-1,3,5-triazin-2-yl]-3-hydroxy-phenoxy]propanoate]", "values": [{"measurement": "Solubility in UV Curable Coating", "setting": "[2]", "result": "~0", "unit": "wt %"}, {"measurement": "20 degree gloss retention", "setting": "[3]", "result": 78.8, "unit": "%"}, {"measurement": "Delta E", "setting": "[4]", "result": 3.78}]}
{"molecule": "CCCCC(CC)COc1ccc(-c2nc(-c3ccc(-c4ccccc4)cc3)nc(-c3ccc(-c4ccccc4)cc3)n2)c(O)c1", "note": "(centres unmarked) [Example 5, 2-[4,6-Bis(4-phenylphenyl)-1,3,5-triazin-2-yl]-5-(2-ethylhexoxy)phenol, reference compound]", "values": [{"measurement": "Solubility in UV Curable Coating", "setting": "[5]", "result": "~2.4", "unit": "wt %"}, {"measurement": "Delta E", "setting": "[4]", "result": 2.79}]}
{"molecule": "CC(C)(C)CCCCCC(=O)OCC(COc1ccc(-c2nc(-c3ccc(-c4ccccc4)cc3)nc(-c3ccc(-c4ccccc4)cc3)n2)c(O)c1)OC(=O)NCCCCCNC(=O)N(CCCCCCN=C=O)C(=O)NCCCCCCN=C=O", "note": "(centres unmarked) [Example 16, [3-[4-[4,6-bis(4-phenylphenyl)-1,3,5-triazin-2-yl]-3-hydroxy-phenoxy]-2-[5-[[6-isocyanatohexyl(6-isocyanatohexylcarbamoyl)carbamoyl]amino]pentyl-carbamoyloxy]propyl] neodecanoate]", "values": [{"measurement": "% T at 325 nm", "setting": "[1]", "result": 0.03, "unit": "%"}, {"measurement": "% T at 350 nm", "setting": "[1]", "result": 0.11, "unit": "%"}, {"measurement": "% T at 375 nm", "setting": "[1]", "result": 33.86, "unit": "%"}]}
{"molecule": "CC(C)(C)CCCCCC(=O)OCC(COc1ccc(-c2nc(-c3ccc(-c4ccccc4)cc3)nc(-c3ccc(-c4ccccc4)cc3)n2)c(O)c1)OC(=O)NCCCCCCNC(=O)N(CCCCCCN=C=O)C(=O)NCCCCCCNC(=O)OC(COC(=O)CCCCCC(C)(C)C)COc1ccc(-c2nc(-c3ccc(-c4ccccc4)cc3)nc(-c3ccc(-c4ccccc4)cc3)n2)c(O)c1", "note": "(centres unmarked) [Example 17, [3-[4-[4,6-bis(4-phenylphenyl)-1,3,5-triazin-2-yl]-3-hydroxy-phenoxy]-2-[6-[[6-[[1-[[4-[4,6-bis(4-phenylphenyl)-1,3,5-triazin-2-yl]-3-hydroxy-phenoxy]methyl]-2-(neodecanoyl)oxy-ethoxy]carbonylamino]hexylcarbamoyl-(6-isocyanatohexyl)-carbamoyl]amino]hexylcarbamoyloxy]propyl] neodecanoate]", "values": [{"measurement": "% T at 325 nm", "setting": "[1]", "result": 0.02, "unit": "%"}, {"measurement": "% T at 350 nm", "setting": "[1]", "result": 0.09, "unit": "%"}, {"measurement": "% T at 375 nm", "setting": "[1]", "result": 25.29, "unit": "%"}]}
{"molecule": "CC(C)(C)CCCCCC(=O)OCC(COc1ccc(-c2nc(-c3ccc(-c4ccccc4)cc3)nc(-c3ccc(-c4ccccc4)cc3)n2)c(O)c1)OC(=O)NCCCCCCn1c(=O)n(CCCCCCN=C=O)c(=O)n(CCCCCCN=C=O)c1=O", "note": "(centres unmarked) [Example 18, [2-[6-[3,5-bis(6-isocyanatohexyl)-2,4,6-trioxo-1,3,5-triazinan-1-yl]hexylcarbamoyloxy]-3-[4-[4,6-bis(4-phenylphenyl)-1,3,5-triazin-2-yl]-3-hydroxy-phenoxy]propyl] neodecanoate]", "values": [{"measurement": "% T at 325 nm", "setting": "[1]", "result": 0.02, "unit": "%"}, {"measurement": "% T at 350 nm", "setting": "[1]", "result": 0.13, "unit": "%"}, {"measurement": "% T at 375 nm", "setting": "[1]", "result": 31.98, "unit": "%"}]}
{"molecule": "CCCCCC(CC)OC(=O)N(CCCCCCN=C=O)C(=O)NCCCCCCNC(=O)OC(COC(=O)CCCCCC(C)(C)C)COc1ccc(-c2nc(-c3ccc(-c4ccccc4)cc3)nc(-c3ccc(-c4ccccc4)cc3)n2)c(O)c1", "note": "(centres unmarked) [Example 19, [3-[4-[4,6-bis(4-phenylphenyl)-1,3,5-triazin-2-yl]-3-hydroxy-phenoxy]-2-[6-[[1-ethylhexoxycarbonyl(6-isocyanatohexyl)carbamoyl]amino]hexylcarbamoyloxy]propyl] neodecanoate]", "values": [{"measurement": "% T at 325 nm", "setting": "[1]", "result": 0.02, "unit": "%"}, {"measurement": "% T at 350 nm", "setting": "[1]", "result": 0.10, "unit": "%"}, {"measurement": "% T at 375 nm", "setting": "[1]", "result": 27.18, "unit": "%"}]}
{"molecule": "CCCCCCCCON1C(C)(C)CC(OC(=O)CCCCCCCCC(=O)OC2CC(C)(C)N(OCCCCCCCC)C(C)(C)C2)CC1(C)C", "note": "[HALS 2, bis(1-octyloxy-2,2,6,6-tetramethylpiperidin-4-yl) sebacate, reference compound]", "values": [{"measurement": "% T at 325 nm", "setting": "[1]", "result": 84.39, "unit": "%"}, {"measurement": "% T at 350 nm", "setting": "[1]", "result": 92.31, "unit": "%"}, {"measurement": "% T at 375 nm", "setting": "[1]", "result": 93.38, "unit": "%"}]}
{"molecule": "[3-[4-[4,6-bis(4-phenylphenyl)-1,3,5-triazin-2-yl]-3-hydroxy-phenoxy]-2-hydroxy-propyl] neo-decanoate (“UVA-3”) and [2-[4-[4,6-bis(4-phenylphenyl)-1,3,5-triazin-2-yl]-3-hydroxy-phenoxy]-3-hydroxy-propyl] neo-decanoate (“UVA-4”) [Example 2]", "values": [{"measurement": "Solubility in UV Curable Coating", "setting": "[5]", "result": "~26", "unit": "wt %"}, {"measurement": "Solubility in UV Curable Coating", "setting": "[2]", "result": "~6.4", "unit": "wt %"}, {"measurement": "Delta E", "setting": "[4]", "result": 1.89}]}
